{
  "source": "ChEMBL document CHEMBL1124763",
  "about": "“Nucleoside conjugates. 11. Synthesis and antitumor activity of 1-beta-D-arabinofuranosylcytosine and cytidine conjugates of thioether lipids” (1990)",
  "key": {"Mus musculus [1]": {"test_system": "Mus musculus", "assay": "Increase of life span was determined against Ip implanted L1210 / 0 lymphoid leukemia in mice at a dose of 300 mg/kg per day after treatment 1", "assay_type": "functional", "details": "L1210/0, ip, route intraperitoneal"}, "Mus musculus [2]": {"test_system": "Mus musculus", "assay": "Increase of life span was determined against Ip implanted L1210 / ara-C (I) lymphoid leukemia in mice at a dose of 400 mg/kg per day", "assay_type": "functional", "details": "route intraperitoneal"}, "Mus musculus [3]": {"test_system": "Mus musculus", "assay": "Range of survival days for antitumor activity against Ip implanted L1210 / 0 lymphoid leukemia in mice at a dose of 200 mg/kg per day after treatment 1;range is 24->45", "assay_type": "functional", "details": "route intraperitoneal"}, "Mus musculus [4]": {"test_system": "Mus musculus", "assay": "Range of survival days for antitumor activity against Ip implanted L1210 / 0 lymphoid leukemia in mice at a dose of 300 mg/kg per day after treatment 1,15;range is 21->45", "assay_type": "functional", "details": "route intraperitoneal"}, "Mus musculus [5]": {"test_system": "Mus musculus", "assay": "Increase of life span was determined against Ip implanted L1210 / 0 lymphoid leukemia in mice at a dose of 100 mg/kg per day after treatment 1,5,9", "assay_type": "functional", "details": "L1210/0, ip, route intraperitoneal"}, "Mus musculus [6]": {"test_system": "Mus musculus", "assay": "Range of survival days for antitumor activity against Ip implanted L1210 / ara-C(I) lymphoid leukemia in mice at a dose of 80 mg/kg per day", "assay_type": "functional", "details": "route intraperitoneal"}, "Mus musculus [7]": {"test_system": "Mus musculus", "assay": "Range of survival days for antitumor activity against Ip implanted L1210 / ara-C (II) lymphoid leukemia in mice at a dose of 300 mg/kg per day", "assay_type": "functional", "details": "route intraperitoneal"}, "Mus musculus [8]": {"test_system": "Mus musculus", "assay": "Range of survival days for antitumor activity against Ip implanted L1210 / 0 lymphoid leukemia in mice at a dose of 400 mg/kg per day after treatment -1;range is 12->45", "assay_type": "functional", "details": "route intraperitoneal"}, "Mus musculus [9]": {"test_system": "Mus musculus", "assay": "Increase of life span was determined against Ip implanted L1210 / 0 lymphoid leukemia in mice at a dose of 300 mg/kg per day after treatment 1,15", "assay_type": "functional", "details": "L1210/0, ip, route intraperitoneal"}, "Mus musculus [10]": {"test_system": "Mus musculus", "assay": "Survival time treated/survival time tested (T/C) for antitumor activity against Ip implanted L1210 / ara-C (II) lymphoid leukemia in mice at a dose of 300 mg/kg per day", "assay_type": "functional", "details": "route intraperitoneal"}, "Mus musculus [11]": {"test_system": "Mus musculus", "assay": "Increase of life span was determined against Ip implanted L1210 / 0 lymphoid leukemia in mice at a dose of 60 mg/kg per day after treatment 1-5", "assay_type": "functional", "details": "L1210/0, ip, route intraperitoneal"}, "Mus musculus [12]": {"test_system": "Mus musculus", "assay": "Range of survival days for antitumor activity against Ip implanted L1210 / 0 lymphoid leukemia in mice at a dose of 100 mg/kg per day after treatment 1,8,15,22;range is 16-32", "assay_type": "functional", "details": "route intraperitoneal"}, "Mus musculus [13]": {"test_system": "Mus musculus", "assay": "Survival time of treated mice for antitumor activity against Ip implanted L1210 / 0 lymphoid leukemia in mice at a dose of 100 mg/kg per day after treatment 1,5,9;25/8", "details": "route intraperitoneal"}, "Mus musculus [14]": {"test_system": "Mus musculus", "assay": "Survival time treated for antitumor activity against Ip implanted L1210 / 0 lymphoid leukemia in mice at a dose of 60 mg/kg per day after treatment 1-5;31/8", "details": "route intraperitoneal"}, "Mus musculus [15]": {"test_system": "Mus musculus", "assay": "Range of survival days for antitumor activity against Ip implanted L1210 / 0 lymphoid leukemia in mice at a dose of 200 mg/kg per day after treatment 1,8,15,22;range is 14->45", "assay_type": "functional", "details": "route intraperitoneal"}, "Mus musculus [16]": {"test_system": "Mus musculus", "assay": "Increase of life span was determined against Ip implanted L1210 / 0 lymphoid leukemia in mice at a dose of 400 mg/kg per day after treatment 5", "assay_type": "functional", "details": "L1210/0, ip, route intraperitoneal"}, "Mus musculus [17]": {"test_system": "Mus musculus", "assay": "Median survival time for antitumor activity against Ip implanted L1210 / 0 lymphoid leukemia in mice at a dose of 300 mg/kg per day after treatment 1,15", "details": "route intraperitoneal"}, "Mus musculus [18]": {"test_system": "Mus musculus", "assay": "Survival time treated for antitumor activity against Ip implanted L1210 / 0 lymphoid leukemia in mice at a dose of 200 mg/kg per day after treatment 5;15/7", "details": "route intraperitoneal"}, "Mus musculus [19]": {"test_system": "Mus musculus", "assay": "Median survival time for antitumor activity against Ip implanted L1210 / ara-C (I) lymphoid leukemia in mice at a dose of 400 mg/kg per day", "details": "route intraperitoneal"}, "Mus musculus [20]": {"test_system": "Mus musculus", "assay": "Range of survival days for antitumor activity against Ip implanted L1210 / 0 lymphoid leukemia in mice at a dose of 300 mg/kg per day after treatment 1;range is 18->45", "assay_type": "functional", "details": "route intraperitoneal"}, "Mus musculus [21]": {"test_system": "Mus musculus", "assay": "Range of survival days for antitumor activity against Ip implanted L1210 / 0 lymphoid leukemia in mice at a dose of 400 mg/kg per day after treatment 1;range is 9->45", "assay_type": "functional", "details": "route intraperitoneal"}, "Mus musculus [22]": {"test_system": "Mus musculus", "assay": "Range of survival days for antitumor activity against Ip implanted L1210 / 0 lymphoid leukemia in mice at a dose of 60 mg/kg per day after treatment 1-5;range is 27->45", "assay_type": "functional", "details": "route intraperitoneal"}, "Mus musculus [23]": {"test_system": "Mus musculus", "assay": "Survival time treated for antitumor activity against Ip implanted L1210 / 0 lymphoid leukemia in mice at a dose of 200 mg/kg per day after treatment 1,8,15,22;24.5/7", "details": "route intraperitoneal"}, "Mus musculus [24]": {"test_system": "Mus musculus", "assay": "Increase of life span was determined against Ip implanted L1210 / 0 lymphoid leukemia in mice at a dose of 200 mg/kg per day after treatment 1,15", "assay_type": "functional", "details": "L1210/0, ip, route intraperitoneal"}, "Mus musculus [25]": {"test_system": "Mus musculus", "assay": "Increase of life span was determined against Ip implanted L1210 / 0 lymphoid leukemia in mice at a dose of 400 mg/kg per day after treatment 2", "assay_type": "functional", "details": "L1210/0, ip, route intraperitoneal"}, "Mus musculus [26]": {"test_system": "Mus musculus", "assay": "Survival time treated for antitumor activity against Ip implanted L1210 / 0 lymphoid leukemia in mice at a dose of 300 mg/kg per day after treatment 1;33/7", "details": "route intraperitoneal"}, "Mus musculus [27]": {"test_system": "Mus musculus", "assay": "Increase of life span was determined against Ip implanted L1210 / 0 lymphoid leukemia in mice at a dose of 400 mg/kg per day after treatment -1", "assay_type": "functional", "details": "L1210/0, ip, route intraperitoneal"}, "Mus musculus [28]": {"test_system": "Mus musculus", "assay": "Median survival time for antitumor activity against Ip implanted L1210 / ara-C (I) lymphoid leukemia in mice at a dose of 80 mg/kg per day", "details": "route intraperitoneal"}, "Mus musculus [29]": {"test_system": "Mus musculus", "assay": "Increase of life span was determined against Ip implanted L1210 / 0 lymphoid leukemia in mice at a dose of 200 mg/kg per day after treatment 5", "assay_type": "functional", "details": "L1210/0, ip, route intraperitoneal"}, "Mus musculus [30]": {"test_system": "Mus musculus", "assay": "Range of survival days for antitumor activity against Ip implanted L1210 / 0 lymphoid leukemia in mice at a dose of 200 mg/kg per day after treatment 5;range is 15-16", "assay_type": "functional", "details": "route intraperitoneal"}, "Mus musculus [31]": {"test_system": "Mus musculus", "assay": "Survival time of treated mice for antitumor activity against Ip implanted L1210 / 0 lymphoid leukemia in mice at a dose of 400 mg/kg per day after treatment 5;14.5/7", "details": "route intraperitoneal"}, "Mus musculus [32]": {"test_system": "Mus musculus", "assay": "Survival time treated for antitumor activity against Ip implanted L1210 / 0 lymphoid leukemia in mice at a dose of 200 mg/kg per day after treatment 1;32/7", "details": "route intraperitoneal"}, "Mus musculus [33]": {"test_system": "Mus musculus", "assay": "Range of survival days for antitumor activity against Ip implanted L1210 / 0 lymphoid leukemia in mice at a dose of 400 mg/kg per day after treatment 0;range is 14->45", "details": "route intraperitoneal"}, "Mus musculus [34]": {"test_system": "Mus musculus", "assay": "Survival time of treated mice for antitumor activity against Ip implanted L1210 / 0 lymphoid leukemia in mice at a dose of 400 mg/kg per day after treatment 2;19.5/7", "details": "route intraperitoneal"}},
  "data": [
    {"smiles": "CCCCCCCCCCCCCCCCCCSCC(COP(=O)(O)OP(=O)(O)OC[C@H]1O[C@@H](n2ccc(N)nc2=O)[C@@H](O)[C@@H]1O)OC(=O)CCCCCCCCCCCCCCC", "note": "(mixture of isomers)", "values": [
      {"measurement": "ILS at 300 mg/kg/day", "setting": "Mus musculus [1]", "result": 371, "unit": "%"},
      {"measurement": "ILS at 400 mg/kg/day", "setting": "Mus musculus [2]", "result": "> 350", "unit": "%"},
      {"measurement": "Range of survival days", "setting": "Mus musculus [3]", "result": ">24"},
      {"measurement": "Range of survival days", "setting": "Mus musculus [4]", "result": ">21"},
      {"measurement": "ILS at 100 mg/kg/day", "setting": "Mus musculus [5]", "result": 213, "unit": "%"},
      {"measurement": "Range", "setting": "Mus musculus [6]", "result": ">25"},
      {"measurement": "Range", "setting": "Mus musculus [7]", "result": 8},
      {"measurement": "Range of survival days", "setting": "Mus musculus [8]", "result": ">12"},
      {"measurement": "ILS at 300 mg/kg/day", "setting": "Mus musculus [9]", "result": 243, "unit": "%"},
      {"measurement": "median survival time", "setting": "Mus musculus [10]", "result": 9, "unit": "days"},
      {"measurement": "ILS at 60 mg/kg/day", "setting": "Mus musculus [11]", "result": 288, "unit": "%"},
      {"measurement": "Range of survival days", "setting": "Mus musculus [12]", "result": 16},
      {"measurement": "survival time", "setting": "Mus musculus [13]", "result": 25, "unit": "days"},
      {"measurement": "survival time", "setting": "Mus musculus [14]", "result": 31, "unit": "days"},
      {"measurement": "Range of survival days", "setting": "Mus musculus [15]", "result": ">14"},
      {"measurement": "ILS at 400 mg/kg/day", "setting": "Mus musculus [16]", "result": 107, "unit": "%"},
      {"measurement": "median survival time", "setting": "Mus musculus [17]", "result": 24.5, "unit": "days"},
      {"measurement": "survival time", "setting": "Mus musculus [18]", "result": 15, "unit": "days"},
      {"measurement": "median survival time", "setting": "Mus musculus [19]", "result": "> 45", "unit": "days"},
      {"measurement": "Range of survival days", "setting": "Mus musculus [20]", "result": ">18"},
      {"measurement": "Range of survival days", "setting": "Mus musculus [21]", "result": ">9"},
      {"measurement": "Range of survival days", "setting": "Mus musculus [22]", "result": ">27"},
      {"measurement": "survival time", "setting": "Mus musculus [23]", "result": 24.5, "unit": "days"},
      {"measurement": "ILS at 200 mg/kg/day", "setting": "Mus musculus [24]", "result": 293, "unit": "%"},
      {"measurement": "ILS at 400 mg/kg/day", "setting": "Mus musculus [25]", "result": 179, "unit": "%"},
      {"measurement": "survival time", "setting": "Mus musculus [26]", "result": 33, "unit": "days"},
      {"measurement": "ILS at 400 mg/kg/day", "setting": "Mus musculus [27]", "result": 207, "unit": "%"},
      {"measurement": "median survival time", "setting": "Mus musculus [28]", "result": "> 45", "unit": "days"},
      {"measurement": "ILS at 200 mg/kg/day", "setting": "Mus musculus [29]", "result": 114, "unit": "%"},
      {"measurement": "Range of survival days", "setting": "Mus musculus [30]", "result": 15},
      {"measurement": "survival time", "setting": "Mus musculus [31]", "result": 14.5, "unit": "days"},
      {"measurement": "survival time", "setting": "Mus musculus [32]", "result": 32, "unit": "days"},
      {"measurement": "Range of survival days", "setting": "Mus musculus [33]", "result": ">14"},
      {"measurement": "survival time", "setting": "Mus musculus [34]", "result": 19.5, "unit": "days"}
    ]}
  ]
}
